Assay results as given in patent US20210139497A1, “THIENOCYCLIC COMPOUND AND SYNTHESIS METHOD THEREFOR AND APPLICATION THEREOF” (SHANGHAI YUYAO BIOTECH LTD., priority 2017, published 2021).

Assays:
[1] = molecular target: T1, human PGE2 receptor EP4 subtype (hEP4) (Homo sapiens, UniProt P35408); assay: Calcium flux of human prostaglandin E2 receptor EP4 subtype; format: cell-based; details: CHO-K1-Gα16 cells overexpressing hEP4, calcium flux activated by prostaglandin E2; read-out: hEP4 Ca^2+ IC50
T1 construct: expressed in transfected cells; host or cells: CHO-K1-Gα16
Protocol: (§1) CHO-K1-Gα16 cells at the logarithmic growth phase were transfected with EP4 overexpressing vector by Lipofectamine 2000 and then seeded in a 96-well plate (Falcon, CA) and cultured at 20000 cells per 100 μL culture medium overnight. On the second day, every single well were added with 100 μL calcium 5 detection reagents (Molecular Devices) and incubated in incubator at 37° C., 5% CO2 for 45 minutes. The compounds were diluted in HBSS detection buffer, then added to 96-well plates. After incubated for 20 min at room temperature away from light, certain concentration of prostaglandin E2 was used to activate calcium flux of cells for detection (Flexstation 3, MD, CA).
(§2) Calculate the IC50 of the compounds of the invention in inhibiting the calcium flux of human PGE2 receptor EP4 subtype (hEP4) and mouse PGE2 receptor EP4 subtype (mEP4) (i.e. the concentration of drugs at which the intracellular Ca^2+ flux is inhibited by half after overexpressing hEP4 and mEP4 receptors in CHO-K1-Gα16 cells). The IC50 of the drugs were calculated using GraphPad Prism 5.

[2] = molecular target: T2, mouse PGE2 receptor EP4 subtype (mEP4) (Mus musculus, UniProt P32240); assay: Calcium flux of mouse prostaglandin E2 receptor EP4 subtype; format: cell-based; details: CHO-K1-Gα16 cells overexpressing mEP4, calcium flux activated by prostaglandin E2; read-out: mEP4 Ca^2+ IC50
T2 construct: expressed in transfected cells; host or cells: CHO-K1-Gα16
Protocol: as §1, §2

[3] = Cytotoxicity evaluation (CCK8), LLC; details: mouse, LLC lung cancer cells
Protocol: (§3) Cells with a density of 2000-8000 cells per 100 μL medium were seeded in 96-well plates (Falcon, CA) and incubated for 24 hours, then treated with drugs having different concentration gradient (at least 4 replicates per concentration) and incubated at 37° C. in 5% CO2 incubator for 72 hours. Then cell viability was detected by CCK8 method. That is to say, add 10 μL CCK8 to each well and incubate for 0.33-2 h, and the OD values are read by microplate reader at 450 nm. The inhibition rate on cell survival of compounds with each concentration were calculated.
(§4) Inhibition rate on cell survival=(OD value of groups with each concentration/OD
(§5) value of control group)×100%±standard deviation.
(§6) The IC50 of drugs were calculated using GraphPad Prism 5.0.

[4] = Cytotoxicity evaluation (CCK8), 293; details: human
[5] = Cytotoxicity evaluation (CCK8), MOSJ; details: mouse, MOSJ osteosarcoma cells
Protocol: as §3, §4, §5, §6

[6] = Cytotoxicity evaluation (CCK8), CT26; details: mouse, CT26 intestinal cancer cells
Protocol: as §3, §4, §5, §6

[7] = Cytotoxicity evaluation (CCK8), EMT-6; details: mouse, EMT-6 breast cancer cells
Protocol: as §3, §4, §5, §6

[8] = Cytotoxicity evaluation (CCK8), PANC02; details: mouse, PANC02 pancreatic cancer cells
Protocol: as §3, §4, §5, §6

T1 sequence (P35408 whole entry): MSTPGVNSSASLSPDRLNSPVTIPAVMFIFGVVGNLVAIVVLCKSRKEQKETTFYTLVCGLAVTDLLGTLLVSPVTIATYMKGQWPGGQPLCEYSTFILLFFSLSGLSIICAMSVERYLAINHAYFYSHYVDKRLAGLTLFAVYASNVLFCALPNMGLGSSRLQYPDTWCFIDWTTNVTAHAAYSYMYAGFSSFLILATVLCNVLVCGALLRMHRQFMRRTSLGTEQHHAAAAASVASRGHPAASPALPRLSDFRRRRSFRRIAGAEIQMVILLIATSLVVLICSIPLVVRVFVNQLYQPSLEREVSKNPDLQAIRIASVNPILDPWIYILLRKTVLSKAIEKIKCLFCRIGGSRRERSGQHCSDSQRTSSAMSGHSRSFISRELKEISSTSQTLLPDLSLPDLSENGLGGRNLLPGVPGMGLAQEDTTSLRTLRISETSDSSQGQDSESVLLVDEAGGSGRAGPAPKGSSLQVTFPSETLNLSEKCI
T2 sequence (P32240 whole entry): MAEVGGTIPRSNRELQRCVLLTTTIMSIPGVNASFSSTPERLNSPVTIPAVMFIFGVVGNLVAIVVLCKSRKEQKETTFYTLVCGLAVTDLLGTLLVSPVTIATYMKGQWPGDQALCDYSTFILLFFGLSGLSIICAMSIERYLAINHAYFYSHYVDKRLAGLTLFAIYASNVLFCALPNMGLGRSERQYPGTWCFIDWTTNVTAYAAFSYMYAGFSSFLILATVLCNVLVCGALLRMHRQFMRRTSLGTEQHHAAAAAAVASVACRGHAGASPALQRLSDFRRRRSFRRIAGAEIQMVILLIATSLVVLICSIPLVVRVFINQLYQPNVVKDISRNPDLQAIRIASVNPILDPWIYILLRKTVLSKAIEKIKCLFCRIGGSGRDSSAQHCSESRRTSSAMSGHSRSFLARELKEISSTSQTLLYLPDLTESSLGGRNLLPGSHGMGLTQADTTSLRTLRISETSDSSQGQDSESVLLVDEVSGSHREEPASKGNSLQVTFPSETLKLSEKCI

| Structure (SMILES) | IC50 [1] [nM] | IC50 [2] [nM] | further results |
| --- | --- | --- | --- |
| C[C@H](NC(=O)c1c(Cc2cccc(Cl)c2)sc2c1CCOC2)c1ccc(C(=O)O)cc1 [YJ126, (S)-4-(1-(2-(3-chlorobenzyl)-4,7-dihydro-5H-thieno[2,3-c]pyran-3-carboxamido)ethyl)benzoic Acid] | < 100 | – | – |
| O=C(NCC1CCC(C(=O)O)CC1)c1c(Cc2ccc(F)cc2)sc2c1CCOC2 (centres unmarked) [YJ130, 4-((2-(4-fluorobenzyl)-4,7-dihydro-5H-thieno[2,3-c]pyran-3-carboxamido)methyl)cyclohexane-1-carboxylic Acid] | < 100 | 100 to 1000 | – |
| C[C@H](NC(=O)c1c(CCc2ccc(F)cc2)sc2c1CCC2)c1ccc(C(=O)O)cc1 [YJ109, (S)-4-(1-(2-(4-fluorophenethyl)-5,6-dihydro-4H-cyclopenta[b]thiophene-3-carboxamido)ethyl)benzoic Acid] | – | < 100 | IC50 at 72 h [3]: > 100000 nM; IC50 at 72 h [4]: > 100000 nM; IC50 at 72 h [5]: > 100000 nM; IC50 at 72 h [6]: > 100000 nM; IC50 at 72 h [7]: > 100000 nM; IC50 at 72 h [8]: > 100000 nM |
| COc1ccc(CCc2sc3c(c2C(=O)N[C@@H](C)c2ccc(C(=O)O)cc2)CCOC3)cc1 [YJ122, (S)-4-(1-(2-(4-methoxyphenethyl)-4,7-dihydro-5H-thieno[2,3-c]pyran-3-carboxamido)ethyl)benzoic Acid] | < 100 | – | – |
| C[C@H](NC(=O)c1c(C#Cc2ccc(F)cc2)sc2c1CC(C)(C)OC2)c1ccc(C(=O)O)cc1 [YJ105, (S)-4-(1-(2-((4-fluorophenyl)ethynyl)-5,5-dimethyl-5,7-dihydro-4H-thieno[2,3-c]pyran-3-carboxamido)ethyl)benzoic Acid] | 100 to 1000 | – | – |
| C[C@H](NC(=O)c1c(C#Cc2ccc(F)cc2)sc2c1CCC2)c1ccc(C(=O)O)cc1 [YJ102, (S)-4-(1-(2-((4-fluorophenyl)ethynyl)-5,6-dihydro-4H-cyclopenta[b]thiophene-3-carboxamido)ethyl)benzoic Acid] | < 100 | < 100 | – |
| C[C@H](NC(=O)c1c(CCc2ccc(C(F)(F)F)cc2)sc2c1CCOC2)c1ccc(C(=O)O)cc1 [YJ111, (S)-4-(1-(2-(4-(trifluoromethyl)phenethyl)-5,7-dihydro-4H-thieno[2,3-c]pyran-3-carboxamido)ethyl)benzoic Acid] | < 100 | < 100 | – |
| Nc1ccn([C@@H]2O[C@H](CO)[C@@H](O)C2(F)F)c(=O)n1 [gemcitabine, reference compound] | – | – | IC50 at 72 h [3]: 5.3 ± 0.2 nM; IC50 at 72 h [4]: 5.1 ± 0.1 nM; IC50 at 72 h [6]: 16 ± 0.1 nM; IC50 at 72 h [8]: 72.6 ± 0.3 nM |
| C[C@H](NC(=O)c1c(Cc2cccc(F)c2)sc2c1CCOC2)c1ccc(C(=O)O)cc1 [YJ123, (S)-4-(1-(2-(3-fluorobenzyl)-4,7-dihydro-5H-thieno[2,3-c]pyran-3-carboxamido)ethyl)benzoic Acid] | < 100 | – | – |
| C[C@H](NC(=O)c1c(Cc2ccc(F)c(F)c2)sc2c1CCOC2)c1ccc(C(=O)O)cc1 [YJ127, (S)-4-(1-(2-(3,4-difluorobenzyl)-4,7-dihydro-5H-thieno[2,3-c]pyran-3-carboxamido)ethyl)benzoic Acid] | < 100 | – | – |
| COc1ccc(Cc2sc3c(c2C(=O)N[C@@H](C)c2ccc(C(=O)O)cc2)CCOC3)cc1 [YJ128, (S)-4-(1-(2-(4-methoxybenzyl)-4,7-dihydro-5H-thieno[2,3-c]pyran-3-carboxamido)ethyl)benzoic Acid] | < 100 | – | – |
